Source: article PMC8538004, “Identification of a Novel Neuropeptide S Receptor Antagonist Scaffold Based on the SHA-68 Core” (Pharmaceuticals, 2021)
“Also recorded” adds a separate entry of the source. Where two headings read alike, the source gives them in different places.

Columns and labels:
[1] = Pharmacokinetic study in C57Bl6 mice; type: in vivo, C57/Bl6 mice; conditions: 30 mg/kg i.p.; for Cmax: mouse, ip
Method: Animals were administered vehicle (1% n-methyl-2-pyrrolidone (NMP) with 0.5% Tween 80 in 0.5% carboxymethyl cellulose (CMC) in water) or compound 14b dissolved in the same vehicle (30 mg/kg, i.p.), and were euthanized at the appropriate timepoints by isoflurane overdose with decapitation. Trunk blood and brains were taken at 15, 30, 60, 120, and 240 min post-injection. Blood was collected in 5 mL tubes that had been preloaded with 0.5 M EDTA so that the final concentration would be approximately 5 mM. Blood/EDTA was centrifuged at 1000× g at 4 °C for 10 min. Plasma was collected and flash-frozen on dry ice and stored at −80 °C until analysis.
Stock solutions of 14b were prepared and diluted serially to generate standard curve and quality control spiking solutions. The concentrations in plasma and brain homogenate for 14b were 0.5, 1, 5, 10, 50, 100, 500, and 1000 ng/mL for standard curves.
Brains were weighed and homogenized at 1:5 (wt:vol) with 50:50 ethanol:water using a Geno/Grinder 2010 (SPEXSamplePrep, Metuchen, NJ, USA) twice at 1750 rpm for 30 s. Subsequently, 50 µL of plasma or brain homogenate was mixed with 150 µL of acetonitrile containing reserpine as internal standard (100 ng/mL) in a 96-well plate. The plate was shaken at 700 rpm for 3 min and then centrifuged at 4000 rpm for 10 min at 4 C. Then, 50 µL of supernatant was mixed with 50 µL of water in a new plate and analyzed by LC/MS-MS.
A SCIEX Exion AD UHPLC system (Framingham, MA) was used to inject 10 µL of the processed samples/calibration standards onto a Waters Acquity BEH C18 (2.1 mm × 100 mm, […]) column (Milford, MA). Mobile phase A consisted of 0.1% formic acid in water, and mobile phase B consisted of 0.1% formic acid in acetonitrile. […] Quantitation was achieved by multiple reaction monitoring in positive ion mode using an SCIEX 6500+ (Framingham, MA) QTRAP mass spectrometer. Compound 14b was quantitated by monitoring the transition of m/z 445.044 → 251.1, and the internal standard, reserpine, was monitored by m/z 609.300 → 194.9. […]

[2] = system: NPS-mediated hyperlocomotion; assay: NPS-stimulated locomotor activity (open field); type: in vivo, C57/Bl6 mice
Method: Male mice between 8 and 12 weeks of age were used for all tests. C57/Bl6 were obtained from the former NCI colony maintained by Charles River. Animals were housed with ad libitum access to food and water on a 12:12 h light:dark cycle with lights on at 06:00. Experiments were conducted between the hours of 09:00 and 15:00. All experiments were approved by the Institutional Animal Care and Use Committee of the State University of New York at Buffalo (PMY09073N) and conducted in accordance with the National Institutes of Health Guide for the Care and Use of Laboratory animals.
Mice were anesthetized using ketamine (100 mg/kg) and xylazine (5 mg/kg) and were secured to a stereotaxic frame once the appropriate plane of anesthesia was reached. An incision was made in order to expose the skull. […]
Open-field testing was conducted in clear plexiglass cages measuring 40 × 40 cm^2 interfaced by a grid array of infrared beams connected to a computer system which tracked and quantified the animals’ location and movements (OMNITECH Instruments, Columbus, OH, USA). […]
Statistical analyses were performed by ANOVA with Tukey’s multiple comparisons test analysis within GraphPad Prism 8 software (GraphPad Software, San Diego, CA, USA). All results are expressed as mean values ± SEM.

Work on `CC(C)CC1(c2ccccc2)OC(=O)C2=C1CN(C(=O)NCc1ccccc1)CC2` (single isomer, unassigned; (+)) [Compound 14b, (+) N-benzyl-3-(2-methylpropyl)-1-oxo-3-phenyl-1H,3H,4H,5H,6H,7H-furo[3,4-c]pyridine-5-carboxamide] yielded a Clearance in plasma [1] of 288 mL/min/kg, a Cmax ([1]; brain, read-out: Cmax in brain) of 186 ng/mL and a Cmax ([1]; plasma, read-out: Cmax in plasma) of 1940 ng/mL. The “Effect on NPS-mediated hyperlocomotion” value ([2]; 3 mg/kg i.p. pretreatment, NPS 0.3 nmol ICV, total distance first 10 min, Veh-NPS vs. 14b-NPS p = 0.0389) was “attenuated; also recorded: able to block; also recorded: sufficient to significantly decrease; also recorded: significantly decreased” and the “Effect on locomotion on its own” value ([2]; 3 mg/kg i.p., aCSF ICV, Veh-aCSF vs. 14b-aCSF p = 0.8199) was “did not decrease locomotion”.
